{"source": "patent US11547667B2", "about": "(priority 2007, dated 2023)", "system": "CD4 T cells from OT-II donor mice", "test": "In vivo CD4 T cell activation, CFSE dilution of transferred OT-II T cells", "parameters": "species or system C57BL6J mice", "settings": "footpad injection, with CpG adjuvant, three days after immunization", "procedure": "Subsequently, immunization experiments were performed by injecting one footpad with free OVA or with nanoparticles composed of either PLA or PLGA that encapsulated an equivalent amount of OVA as a model antigen. All antigenic mixtures also contained CpG (a TLR9 agonist) as an adjuvant. The animals were injected, sacrificed three days after immunization, and OT-II T cell activation was assessed by flow cytometry in single-cell suspensions from different tissues.\nBy contrast, activated T cells divide and in the process split the fluorescent dye evenly between the two daughter cells resulting in an incremental decrease in fluorescence intensity upon each successive division. Thus, the greater the left shift in CFSE, fluorescence the stronger T cells were activated."}
{"substance": "free OVA: free chicken ovalbumin (OVA), mixed with CpG adjuvant", "values": [{"measurement": "local T cell proliferation in distal lymphoid tissues (brachial lymph node, spleen)", "result": "only undivided cells or cells with very low CFSE content"}]}
